Experimental findings from ChEMBL document CHEMBL5046270, “A Selective and Orally Bioavailable Quinoline-6-Carbonitrile-Based Inhibitor of CDK8/19 Mediator Kinase with Tumor-Enriched Pharmacokinetics” (J Med Chem, 2022) are described below.

In one assay the test system is MV4-11. As to the kind of experiment: Antitumor activity against human luciferase expressing MV4-11 AML cells xenografted in NOD SCID NSG mouse assessed as supression of tumor growth at 40 mg/kg, po bid for 4 weeks by bioluminescence imaging method. The format is functional, organism-based. (In general: Xenograft models place foreign cells or tissue in a host animal.)

Assay [1] concerns the target T1, Mitogen-activated protein kinase kinase kinase kinase 2 (Homo sapiens) (UniProt Q12851).
T1 sequence (whole entry): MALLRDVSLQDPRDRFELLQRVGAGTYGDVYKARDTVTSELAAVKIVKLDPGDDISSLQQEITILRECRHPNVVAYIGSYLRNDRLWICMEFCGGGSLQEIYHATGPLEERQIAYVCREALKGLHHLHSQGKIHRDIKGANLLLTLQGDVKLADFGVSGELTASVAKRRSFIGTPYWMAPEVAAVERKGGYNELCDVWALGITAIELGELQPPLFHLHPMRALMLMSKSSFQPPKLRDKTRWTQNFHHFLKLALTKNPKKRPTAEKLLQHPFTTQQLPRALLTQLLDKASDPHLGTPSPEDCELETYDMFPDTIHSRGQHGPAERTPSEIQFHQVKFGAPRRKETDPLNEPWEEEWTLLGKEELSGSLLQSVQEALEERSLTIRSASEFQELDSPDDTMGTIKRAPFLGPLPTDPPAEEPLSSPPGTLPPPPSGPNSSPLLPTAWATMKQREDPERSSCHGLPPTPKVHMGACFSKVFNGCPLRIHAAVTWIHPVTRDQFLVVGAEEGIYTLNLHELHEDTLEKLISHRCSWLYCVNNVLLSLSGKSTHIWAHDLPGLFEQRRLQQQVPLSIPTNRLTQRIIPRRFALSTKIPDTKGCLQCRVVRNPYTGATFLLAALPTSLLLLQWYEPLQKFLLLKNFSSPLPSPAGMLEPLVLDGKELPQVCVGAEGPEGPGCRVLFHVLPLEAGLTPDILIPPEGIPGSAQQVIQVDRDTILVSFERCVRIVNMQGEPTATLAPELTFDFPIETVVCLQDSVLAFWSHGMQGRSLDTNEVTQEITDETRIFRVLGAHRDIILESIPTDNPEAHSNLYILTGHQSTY
Put plainly: Inhibition of human MAP4K2 at 2 uM by competition binding assay relative to control. The note with it: values are per cent of control.

Activity calls are given as the source filed them. No cut-off for these calls is given here.

`CN1CCN(C(=O)c2ccc3cc(CCNc4ccnc5ccc(C#N)cc45)ccc3c2)CC1`: in the assay with MV4-11, the outcome was Active. The same compound came in with a residual binding, % of control in assay [1] of 29%.
